Reference: patent publication US20080108665A1, “Use of N-substituted sulfoximines for control of invertebrate pests” (priority 2006, published 2008)

Tests used:
[1] = test system: Green Peach Aphid (Myzus persicae); test: Green peach aphid root uptake assay on pepper; assay type: in vivo; settings: 3 days after infestation
Experimental: These assays were designed to evaluate the possibility of using the compounds identified in the foregoing examples for applications such as nursing trays, transplanting water and/or irrigation. Systemic activity against green peach aphid was evaluated in a root uptake assay. Bell peppers (Capsicum annum var. California Wonder) were used as test plants seeded and grown in rock wool plugs. Plants were grown to expanding 1st true leaf stage. The rock wool plugs containing individual plants were placed in 1-ounce cups and surrounded with white clean sand. Five plants were used for each treatment. A volume of 5 mL of the test solutions was applied to each cup (each plant). After insecticide application, the seedlings were infested with green peach aphids and held in a growth chamber (25° C., 50% RH, 16 hr light: 8 hr dark). Number of live aphids on each plant was counted at 3 days after infestation. Calculations for % Control were based on a corrected basis compared to the populations on the reference plants.
Corrected % Control=100*(X−Y)/X • where X=No. of live aphids on reference plants • Y=No. of live aphids on treated plants Assay 1: Compound (3) was tested at a dose range of 5-500 μg/plant. A stock solution of 1000 ppm (1 mg/mL) was made by dissolving technical test compound in acetone:ethanol (90:10). The highest test concentration (100 ppm, 500 μg/5 ml) was prepared by diluting 2.5 mL stock solution with 22.5 mL DI water. The lower test concentrations (25 mL) were similarly prepared by diluting aliquots of the stock solution with DI water. Reference plants received DI water only.
Assay 2: Compound (2) was tested at a dose range of 0.08-50 μg/plant. A stock solution of 1000 ppm was made by dissolving 2 mg of technical test compound in 2 mL acetone. The highest test concentration (10 ppm, 50 μg/5 ml) was prepared by diluting 0.32 mL stock solution with 1.6 mL acetone and 30.08 mL DI water, containing 6% acetone. Lower test concentrations were prepared by sequentially diluting 6.5 mL higher concentration (start from the 10 ppm test solution) with 26.0 ml acetone: DI water (6:94). The solvent/diluent system (6% acetone) was used as reference.

[2] = test system: sweet potato whitefly, Bemisia tabaci; settings: more recently-collected strains of whitefly, late 1990s; cited from earlier work
[3] = test system: Cotton Aphid (Aphis gossypii); test: Cotton aphid seed coating assay on squash; assay type: in vivo; settings: 3 mg/seed, 10% SC formulation, counted 3 days after infestation
Experimental: Selected compounds of the invention were tested in assays designed to evaluate its systemic activity for control of cotton aphid through seed-coating prior to planting. The crop used in these assays was a hybrid squash (var. Pic-N-Pic). Test compound was formulated in a 10% SC formulation. Ten squash seeds were used for each treatment. Seeds were placed on waxed paper and a pipette was used to apply the original or diluted formulations to each seed. The air-dried, treated seeds were individually planted into 3 inch pots containing metro mix. The pots were placed on a California cart and moved into the greenhouse for sub watering only. At the specified number of days after planting, the plants were infested with approximately 40 wingless aphids. The infested plants were kept in an environmental holding room (23° C., 40% RH, 16 hr light: 8 hr dark) for three days before the number of live aphids was counted under a microscope. Calculations for % Control were based on a corrected basis compared to the populations on the reference plants germinated from seeds treated with the formulation blank.
Corrected % Control=100*(X−Y)/X • where X=No. of live aphids on reference plants • Y=No. of live aphids on treated plants Assay 1. Compounds (1) and (2) were tested at 3 mg/seed. The original 10% SC formulation was used. One half (15 ul) of the sample was spread onto one side of a seed. Once dried (approximately 1 hr), the seed was flipped over and the 2nd half of sample was spread over the other side. Fourteen and 25 days after planting, aphid infestations were conducted on the 1st and 2nd true leaves, respectively.
Assay 2. Compound (2) was tested at 0.1 and 1 mg/seed. For the 1 mg/seed treatment, the original 10% formulation was used. For the 0.1 mg/seed treatment, the 10% formulation were diluted 10× with DI water before application. One half (5 ul) of the sample was spread onto one side of a seed. Once dried (approximately 1 hr), the seed was flipped over and the 2nd half of sample was spread over the other side. Thirteen days after planting, the 1st leaf was infested.

N#CN=S1(=O)CCCC1Cc1ccc(Cl)nc1 (stereo not drawn) [Compound 3, 2-[(6-chloropyridin-3-yl)methyl]-1-oxidotetrahydro-1H-1-λ^4-thien-1-ylidenecyanamide]
% Control, root uptake systemic ([1]; 5 μg/plant): 10% | % Control, root uptake systemic ([1]; 50 μg/plant): 88% | % Control, root uptake systemic ([1]; 500 μg/plant): 100%

O=[N+]([O-])NC1=NCCN1Cc1ccc(Cl)nc1 [imidacloprid, Imidacloprid]
resistance [2]: more than 100 fold

CS(=O)(Cc1ccc(Cl)nc1)=NC#N (stereo not drawn) [Compound 1, [(6-Chloropyridin-3-yl)methyl](methyl)oxido-λ^4-sulfanylidenecyanamide]
% Control, seed coating systemic 1st leaf, 14 days after planting [3]: 100% | % Control, seed coating systemic 2nd leaf, 25 days after planting [3]: 99.6%
